According to patent US12030908B2, “Antimicrobial compounds, compositions, and uses thereof” (Lakewood Amedex, Inc., priority 2017, dated 2024):
Several values for one entry are separate records, joined by “and”; a condition that tells them apart may be missing. Identical values can stand only once. Entries after “also recorded” stand apart in the source; their conditions may differ.

Columns and labels:
[1] = test system: Citrobacter species; assay: MIC at pH 3.5, CLSI, Mueller-Hinton broth; assay type: cell-based; settings: 5 isolates
Method: (§1) Bacterial strains evaluated in this study include Escherichia coli, Klebsiella spp, Serratia marcescens, Proteus mirabilis/vulgaris, Citrobacter spp, Providencia spp, Morganella morganii, Pseudomonas aeruginosa, Staphylococcus aureus (MRSA only), and Enterococcus faecalis. Nu-8 test solutions are adjusted to pH 3.5 with citric acid, and […] is evaluated per the CLSI methods in Mueller-Hinton broth supplemented accordingly to facilitate growth of specific strains.

[2] = test system: Enterococcus faecalis; assay: MIC at pH 3.5, CLSI, Mueller-Hinton broth; assay type: cell-based; settings: 5 isolates
Method: as §1

[3] = test system: Escherichia coli; assay: MIC at pH 3.5, CLSI, Mueller-Hinton broth; assay type: cell-based; settings: 5 isolates
Method: as §1

[4] = test system: Klebsiella pneumoniae; assay: MIC at pH 3.5, CLSI, Mueller-Hinton broth; assay type: cell-based; settings: 5 isolates
Method: as §1

[5] = test system: Morganella morganii; assay: MIC at pH 3.5, CLSI, Mueller-Hinton broth; assay type: cell-based; settings: 5 isolates
Method: as §1

[6] = test system: Proteus mirabilis/vulgaris; assay: MIC at pH 3.5, CLSI, Mueller-Hinton broth; assay type: cell-based; settings: 5 isolates
Method: as §1

[7] = test system: Providencia species; assay: MIC at pH 3.5, CLSI, Mueller-Hinton broth; assay type: cell-based; settings: 5 isolates
Method: as §1

[8] = test system: Pseudomonas aeruginosa; assay: MIC at pH 3.5, CLSI, Mueller-Hinton broth; assay type: cell-based; settings: 20 isolates
Method: as §1

[9] = test system: Serratia marcescens; assay: MIC at pH 3.5, CLSI, Mueller-Hinton broth; assay type: cell-based; settings: 5 isolates
Method: as §1

[10] = test system: Staphylococcus aureus (MRSA); assay: MIC at pH 3.5, CLSI, Mueller-Hinton broth; assay type: cell-based; settings: 20 isolates
Method: as §1

[11] = test system: Haemophilus influenzae; assay: MIC at pH 3.5, CLSI, Mueller-Hinton broth; assay type: cell-based; settings: 5 isolates
[12] = test system: bacterial strains; assay: MIC at pH 3.5 in human and mouse urine; assay type: cell-based
[13] = test system: Aspergillus fumigatus (ATCC13073); assay: Individual mouse clinical signs (animal condition) in the Aspergillus fumigatus lung infection model (Example 24); assay type: in vivo, BALB/c mice; parameters: key: NAD = no abnormality detected
[14] = test system: Acinetobacter baumannii (ATCC 19606); assay: Neutropenic lung infection model in mice, lung bacterial burden (Example 25); assay type: in vivo, BALB/c mice; settings: for antibacterial effect on A. baumannii vs day 3 vehicle control: 10% solution aerosol once daily, p<0.05; for Log10 CFU/g lung Mean ± SD / Log10 CFU/g lung: Nu-8 (10%), aerosol, 2 h post end of treatment; for Log10 CFU/g lung Mean ± SD: group mean; for Log10 CFU/g lung: individual animals
Method: Neutropenic, BALB/c female mice, all of which were from 6 to 8 weeks of age, were infected intranasally with ˜2×10^7 CFU/lung Acinetobacter baumannii (ATCC 19606). Twenty-four hours after infection; animals were treated by aerosol route with vehicle or Nu-8 (10% solution), once daily for one, three, and five days. Following treatment for 1, 3, and 5 days, animals were terminated, and lung tissues were collected to determine the bacterial load.
The mice were separated into cohorts in accordance with Table 26.
On day −4 (four days before the date of infection), each mouse was dosed with a single intraperitoneal injection of cyclophosphamide equivalent to 150 mg/kg and returned to its cage. On day −1 (one day before infection) each mouse received a dose equivalent to 100 mg/kg of cyclophosphamide.
On day −1, an aliquot from glycerol stocks of Acinetobacter baumannii (ATCC19606) was thawed, inoculated into fresh Casein Soybean Digest Broth (CSDB) and incubated overnight at 37° C.
On the day of infection (Day 0), the overnight culture was checked, centrifuged and the cells were pelleted and resuspended in sterile normal saline to obtain approximately 10^9 CFU/ml Acinetobacter baumannii, which was used for infection. The inoculum was serially diluted ten-fold in sterile CSDB and 0.05 ml of six dilutions was plated onto CSD Agar plates to determine the viable count (CFU/ml) of inoculum.
Animals were divided into different groups as specified in the experimental design (Table 26). Infections were conducted in a biological safety cabinet, with appropriate personnel protection. Mice were placed into an induction chamber and anesthesia was induced by exposing the animals to 3%-5% Isoflurane in an oxygen flow set at approximately 1 liter per minute (LPM). Once the animals were in a sufficiently deep plane of anesthesia, they were removed and infected. Infection was done by instilling 0.02 ml (containing ˜1×10^9 CFU/ml) of the inoculum; 10 μl was instilled into each nostril of the anesthetized animal intra-nasally using a 10 μl pipette (˜2×10^7 CFU/animal). A gentle shaking/mixing of inoculum between two animals was followed for uniform distribution.
The vehicle used for the test compound was saline (0.9% NaCl adjusted to pH 3.5 with citric acid). To make 10% Nu-8 solution, 15 g of compound was weighed and dissolved in 145 ml of 0.9% NaCl; pH of solution was adjusted to 3.5 by adding 2.4 ml of citric acid solution and to this solution, 2.6 ml of 0.9% NaCl solution was added to make up the volume to 150 ml. The same procedure was followed on day 2, 3, 4 and 5.
Treatment was initiated twenty-four hours post infection. Test formulations were administered by aerosol route with nose-only apparatus connected to a nebulizer (Omron Ne-C28 Compressor Nebulizer with a volume capacity of 15 ml, Particle size 3 μm, nebulization rate: 0.5 ml/min, and Aerosol output rate: 0.09 ml/min). The formulation prepared previously was placed into the nebulizer fluid cup; animals were placed in the nose-only apparatus and the entire system was placed inside a Class II Biosafety Cabinet. Animals received nebulization for 20 min, followed by a 30-minute rest and then an additional 20-minute exposure at the same dose concentration (the flow rate and percentage of test material available at the inhalation port was 16% of the initial concentration in the nebulizer if the test compound is in solution).
Groups of animals were euthanized at 2 h post treatment, as specified in the experimental design, by an overdose of CO2 in an appropriate exposure chamber.
The euthanized animals were dipped into 70% ethanol for surface decontamination. Lungs were aseptically excised, weighed, placed in a 2 ml centrifuge tube containing 1 ml of sterile CSDB broth, and homogenized (Omni Tip (220THB handheld)). Serial ten-fold dilutions of the lung homogenates were prepared in sterile CSDB broth and 0.05 ml of four dilutions for each lung was plated onto CSDA agar plates. […]

[15] = Part C, 1×10^3 conidia/animal, Nu-8 (10%), 3 doses, once daily for 3 days, aerosol, individual animals
[16] = Part D, 1×10^2 conidia/animal, Nu-8 (10%), 5 doses, once daily for 5 days, individual animals

## CCCCOP(=O)(O)OC[C@H]1O[C@@H](n2ccc(N)nc2=O)C[C@@H]1OP(=O)(O)OCCCC [Nu-8, sodium ((2R,3S,5R)-5-(4-amino-2-oxopyrimidin-1(2H)-yl)-3-((butoxyoxidophosphor-yl)oxy)tetrahydrofuran-2-yl)methyl butyl phosphate]
[1]
  Nu-8 MIC (mg/mL) at pH 3.5: 18.75-37.5 mg/mL
[2]
  Nu-8 MIC (mg/mL) at pH 3.5: 4.69-18.75 mg/mL
[3]
  Nu-8 MIC (mg/mL) at pH 3.5: 37.5 mg/mL
[4]
  Nu-8 MIC (mg/mL) at pH 3.5: 37.5-75 mg/mL
[5]
  Nu-8 MIC (mg/mL) at pH 3.5: 18.75 mg/mL
[6]
  Nu-8 MIC (mg/mL) at pH 3.5: 4.69-18.75 mg/mL
[7]
  Nu-8 MIC (mg/mL) at pH 3.5: 9.38-37.5 mg/mL
[8]
  MIC50 at pH 3.5: 18.75 mg/mL
  MIC90 at pH 3.5: 18.75 mg/mL
[8]; MIC range
  Nu-8 MIC (mg/mL) at pH 3.5: 9.38-18.75 mg/mL
[9]
  Nu-8 MIC (mg/mL) at pH 3.5: 37.5-75 mg/mL
[10]
  MIC50 at pH 3.5: 18.75 mg/mL
  MIC90 at pH 3.5: 37.5 mg/mL
[10]; MIC range
  Nu-8 MIC (mg/mL) at pH 3.5: 9.38-37.5 mg/mL
[11]
  Nu-8 MIC (mg/mL) at pH 3.5: 4.69-9.38 mg/mL
[12]
  MICs in human and mouse urine: comparable to those of Nu-8 in Mueller Hinton broth
[13]; Part A, 3 doses, once daily for 3 days, individual animals 19-24
  Animal Condition Day 1: Normal
[13]; Part A, 5 doses, once daily for 5 days, individual animals 25-30
  Animal Condition Day 1: Normal
[13]; Part B, 3 doses, once daily for 3 days, individual animals 23-30
  Animal Condition Day 1: NAD
[13]; Part B, single dose, individual animals 15-22
  Animal Condition Day 1: NAD
[13]; [15]
  Animal Condition Day 1: NAD
  Animal Condition Day 2: Animal dull
  Animal Condition Day 3: Animal dull; also recorded: Moribund
[13]; [16]
  Animal Condition Day 1: NAD
  Animal Condition Day 2: NAD
  Animal Condition Day 3: NAD
  Animal Condition Day 4: NAD
  Animal Condition Day 5: NAD
[14]; day 3
  antibacterial effect on A. baumannii vs day 3 vehicle control: significant antibacterial effect; also recorded: significant antibacterial activity
[14]; day 5
  antibacterial effect on A. baumannii vs day 3 vehicle control: significant antibacterial effect; also recorded: significant antibacterial activity
[14]; 10% solution aerosol, day 1, p>0.05
  activity vs vehicle control on day 1: No significant activity
[14]; 3 doses, once daily for 3 days, p < 0.05 vs corresponding vehicle control
  Log10 CFU/g lung Mean ± SD: 4.01 ± 0.72 Log10 CFU/g lung
[14]; 3 doses, once daily for 3 days
  Log10 CFU/g lung: 4.75 Log10 CFU/g lung and 3.02 Log10 CFU/g lung and 4.34 Log10 CFU/g lung and 3.19 Log10 CFU/g lung and 4.29 Log10 CFU/g lung and 4.46 Log10 CFU/g lung
[14]; 5 doses, once daily for 5 days, p < 0.05 vs day 3 vehicle control
  Log10 CFU/g lung Mean ± SD: 2.69 ± 0.16 Log10 CFU/g lung
[14]; 5 doses, once daily for 5 days
  Log10 CFU/g lung: 2.76 Log10 CFU/g lung and 2.51 Log10 CFU/g lung and 2.71 Log10 CFU/g lung and 2.62 Log10 CFU/g lung and 2.96 Log10 CFU/g lung and 2.60 Log10 CFU/g lung
[14]; single dose
  Log10 CFU/g lung Mean ± SD: 5.67 ± 0.47 Log10 CFU/g lung
  Log10 CFU/g lung: 5.51 Log10 CFU/g lung and 6.03 Log10 CFU/g lung and 5.54 Log10 CFU/g lung and 6.30 Log10 CFU/g lung and 5.72 Log10 CFU/g lung and 4.93 Log10 CFU/g lung
[14]; following treatment for 5 days
  decrease in lung burden compared to the vehicle on day 1: > 3 Log10) CFU/g lung
